# Patent publication US20250002455A1, “NEW N-PHENYLPYRROLAMIDE INHIBITORS OF DNA GYRASE AND TOPOISOMERASE IV WITH ANTIBACTERIAL ACTIVITY” (priority 2020, published 2025)
# Like-named read-outs stand apart in the source and are kept apart here.
# Columns and labels:
# [1] = system: E. aerogenes (ATCC 13408); assay: Microbroth dilution MIC (CLSI); type: cell-based, Enterobacter aerogenes; settings: Klebsiella aerogenes, ATCC13408
# Procedure: The chemical entities described in the present invention were assessed for their antimicrobial activity using a microbroth dilution assay as recommended by the CLSI (Methods for Dilution Antimicrobial Susceptibility Tests for Bacteria That Grow Aerobically, and Methods for Antimicrobial Susceptibility Testing of Anaerobic Bacteria, Clinical and Laboratory Standards Institute, Document M07-A8, and M11-A8, Wayne, PA 19087, USA, 2012.). Compounds were dissolved by using 100% DMSO. Serial two-fold dilutions of each compound were made by using 100% DMSO as the diluent.
# A library of Gram-negative and Gram-positive microbes and their drug- and multidrug-resistant variants were employed as test organisms. The MIC (minimum inhibitory concentration) was determined as the lowest concentration of an individual drug that lead to no visible growth.
# E. coli topoisomerase IV = molecular target: T1, E. coli topoisomerase IV (Escherichia coli, UniProt P20083); assay: biochemical; settings: for IC50: read-out: IC50; for remaining activity at 10 µM: 10 μM compound, read-out: RA (residual activity of the enzyme)
# T1 construct: purchased Inspiralis
# T1 sequence (P0AFI2 whole entry): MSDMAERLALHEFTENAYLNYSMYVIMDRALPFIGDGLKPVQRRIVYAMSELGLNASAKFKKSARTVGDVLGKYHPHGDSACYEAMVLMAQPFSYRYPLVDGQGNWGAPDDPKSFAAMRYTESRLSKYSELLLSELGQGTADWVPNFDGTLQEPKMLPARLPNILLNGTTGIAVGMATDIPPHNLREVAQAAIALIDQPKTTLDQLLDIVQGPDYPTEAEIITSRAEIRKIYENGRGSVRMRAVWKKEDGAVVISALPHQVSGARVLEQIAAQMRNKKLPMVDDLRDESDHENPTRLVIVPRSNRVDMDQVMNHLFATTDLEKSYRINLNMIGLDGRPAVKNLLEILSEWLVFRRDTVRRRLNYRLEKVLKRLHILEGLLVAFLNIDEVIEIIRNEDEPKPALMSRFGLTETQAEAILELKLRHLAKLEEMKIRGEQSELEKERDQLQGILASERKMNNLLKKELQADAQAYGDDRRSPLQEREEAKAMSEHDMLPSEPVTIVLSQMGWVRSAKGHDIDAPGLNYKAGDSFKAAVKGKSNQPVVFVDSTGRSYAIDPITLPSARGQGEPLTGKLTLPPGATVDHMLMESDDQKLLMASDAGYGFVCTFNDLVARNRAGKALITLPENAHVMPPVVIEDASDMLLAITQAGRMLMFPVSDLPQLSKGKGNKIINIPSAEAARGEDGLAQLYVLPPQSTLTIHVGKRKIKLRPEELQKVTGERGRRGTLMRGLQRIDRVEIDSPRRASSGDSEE
# T1 sequence (P20083 whole entry): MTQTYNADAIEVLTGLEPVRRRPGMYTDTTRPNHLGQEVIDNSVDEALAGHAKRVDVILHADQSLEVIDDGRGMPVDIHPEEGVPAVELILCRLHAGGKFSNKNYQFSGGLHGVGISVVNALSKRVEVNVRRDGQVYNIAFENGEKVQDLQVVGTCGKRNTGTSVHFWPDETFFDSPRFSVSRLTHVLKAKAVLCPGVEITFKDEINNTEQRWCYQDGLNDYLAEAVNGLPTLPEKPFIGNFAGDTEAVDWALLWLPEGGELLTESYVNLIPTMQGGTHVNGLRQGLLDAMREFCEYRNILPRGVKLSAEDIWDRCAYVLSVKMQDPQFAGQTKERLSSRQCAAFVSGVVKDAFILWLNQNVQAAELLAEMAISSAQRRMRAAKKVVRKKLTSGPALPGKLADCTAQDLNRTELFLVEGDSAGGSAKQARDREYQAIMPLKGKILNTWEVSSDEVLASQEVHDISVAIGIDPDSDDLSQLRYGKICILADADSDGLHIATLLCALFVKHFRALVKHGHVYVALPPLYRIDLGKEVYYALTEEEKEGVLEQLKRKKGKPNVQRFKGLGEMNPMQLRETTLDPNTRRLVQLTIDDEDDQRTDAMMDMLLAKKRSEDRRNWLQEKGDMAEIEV
# How it was run: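 Supercoiling/relaxation read via biotin-oligonucleotide triplex capture on streptavidin plates; reactions 30 min at 37° C, stopped with TF buffer pH 5.0, plasmid stained with SybrGOLD.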
# E. coli DNA gyrase = molecular target: T2, E. coli DNA gyrase (Escherichia coli, UniProt P0AES6); assay: biochemical; settings: for IC50: read-out: IC50
# T2 construct: purchased Inspiralis
# How it was run: (§1)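 Triplex-capture format: plasmid bound to a biotinylated oligonucleotide on streptavidin plates after reaction at 37 °C for 30 min. The reaction was stopped with TF buffer (50 mM NaOAc pH 5.0, 50 mM NaCl, 50 mM MgCl2), and captured DNA was stained with SybrGOLD. IC50 values are the mean of three independent measurements.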
# S. aureus DNA gyrase = molecular target: T3, S. aureus DNA gyrase (Staphylococcus aureus, UniProt P0A0K8); assay: biochemical; settings: for IC50: read-out: IC50
# T3 construct: purchased Inspiralis
# T3 sequence (P20831 whole entry): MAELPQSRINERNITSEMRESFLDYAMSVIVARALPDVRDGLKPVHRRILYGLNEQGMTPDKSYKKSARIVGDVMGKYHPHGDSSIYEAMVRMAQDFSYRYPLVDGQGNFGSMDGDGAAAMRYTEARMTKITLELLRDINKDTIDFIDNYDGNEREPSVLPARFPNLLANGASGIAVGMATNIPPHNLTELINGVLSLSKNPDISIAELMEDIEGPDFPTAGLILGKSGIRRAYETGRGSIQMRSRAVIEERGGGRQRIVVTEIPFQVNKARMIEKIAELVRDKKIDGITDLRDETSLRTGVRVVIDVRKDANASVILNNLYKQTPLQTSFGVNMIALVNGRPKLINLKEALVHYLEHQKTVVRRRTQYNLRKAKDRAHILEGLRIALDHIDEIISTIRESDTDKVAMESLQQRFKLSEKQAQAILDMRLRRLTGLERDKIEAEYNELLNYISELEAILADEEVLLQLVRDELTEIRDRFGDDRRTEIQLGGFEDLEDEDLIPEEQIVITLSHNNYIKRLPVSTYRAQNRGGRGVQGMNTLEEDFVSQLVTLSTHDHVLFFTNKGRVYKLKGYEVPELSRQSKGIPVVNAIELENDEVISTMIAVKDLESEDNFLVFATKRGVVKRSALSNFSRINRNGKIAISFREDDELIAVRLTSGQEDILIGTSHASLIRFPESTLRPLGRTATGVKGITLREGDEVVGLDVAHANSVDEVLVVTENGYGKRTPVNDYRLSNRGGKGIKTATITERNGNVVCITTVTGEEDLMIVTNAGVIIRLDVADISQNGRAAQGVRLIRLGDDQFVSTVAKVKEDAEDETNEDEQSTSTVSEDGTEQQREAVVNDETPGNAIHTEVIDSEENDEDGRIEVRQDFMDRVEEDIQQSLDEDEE
# T3 sequence (P0A0K8 whole entry): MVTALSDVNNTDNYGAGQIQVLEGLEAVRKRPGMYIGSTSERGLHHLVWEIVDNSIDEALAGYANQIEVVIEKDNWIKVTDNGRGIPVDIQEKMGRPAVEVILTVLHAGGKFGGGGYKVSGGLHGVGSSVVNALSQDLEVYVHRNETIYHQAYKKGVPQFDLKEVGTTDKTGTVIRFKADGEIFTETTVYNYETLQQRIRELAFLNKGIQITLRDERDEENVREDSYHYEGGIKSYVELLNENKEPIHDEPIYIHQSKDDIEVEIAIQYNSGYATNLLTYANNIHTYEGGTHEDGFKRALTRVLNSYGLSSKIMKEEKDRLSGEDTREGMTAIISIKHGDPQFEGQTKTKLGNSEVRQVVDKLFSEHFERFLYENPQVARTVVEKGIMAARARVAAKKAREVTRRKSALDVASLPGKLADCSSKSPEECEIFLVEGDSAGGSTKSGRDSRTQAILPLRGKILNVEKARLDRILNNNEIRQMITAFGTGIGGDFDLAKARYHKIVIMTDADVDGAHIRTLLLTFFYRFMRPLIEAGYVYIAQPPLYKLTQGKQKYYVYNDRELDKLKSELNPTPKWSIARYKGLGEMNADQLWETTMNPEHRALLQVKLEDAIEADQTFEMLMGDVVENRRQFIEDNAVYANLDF
# How it was run: as §1
# [2] = system: K. pneumoniae (ATCC 700603); assay: Microbroth dilution MIC (CLSI); type: cell-based; settings: Klebsiella pneumoniae, ATCC700603
# How it was run: (§2)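 Testing follows CLSI documents M07-A8 and M11-A8. Each compound is dissolved in DMSO and diluted two-fold serially in the same solvent. No visible growth at the lowest concentration sets the MIC.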
# E. coli ATCC 25922 = assay: Microbroth dilution MIC (CLSI); type: cell-based; settings: Escherichia coli, ATCC25922
# How it was run: as §2
# E. faecium (ATCC 35667) = assay: Microbroth dilution MIC (CLSI); type: cell-based; settings: Enterococcus faecium, ATCC35667
# How it was run: as §2
# P. aeruginosa ATCC 27853 = assay: Microbroth dilution MIC (CLSI); type: cell-based; settings: Pseudomonas aeruginosa, ATCC27853
# How it was run: as §2
# S. aureus ATCC 29213 = assay: Microbroth dilution MIC (CLSI); type: cell-based; settings: Staphylococcus aureus, ATCC29213
# How it was run: as §2
# [3] = system: A. baumannii (ATCC 19606); assay: Microbroth dilution MIC (CLSI); type: cell-based; settings: Acinetobacter baumannii, ATCC19606
# How it was run: as §2
# [4] = molecular target: T4, S. aureus topoisomerase IV (Staphylococcus aureus, UniProt P0C1S7); assay: Topoisomerase IV inhibition assay (Inspiralis, streptavidin-coated plates); type: biochemical; settings: S. aureus topo IV; for IC50: read-out: IC50; for remaining activity at 10 µM: 10 μM compound
# T4 construct: purchased Inspiralis
# T4 sequence (P0C1U9 whole entry): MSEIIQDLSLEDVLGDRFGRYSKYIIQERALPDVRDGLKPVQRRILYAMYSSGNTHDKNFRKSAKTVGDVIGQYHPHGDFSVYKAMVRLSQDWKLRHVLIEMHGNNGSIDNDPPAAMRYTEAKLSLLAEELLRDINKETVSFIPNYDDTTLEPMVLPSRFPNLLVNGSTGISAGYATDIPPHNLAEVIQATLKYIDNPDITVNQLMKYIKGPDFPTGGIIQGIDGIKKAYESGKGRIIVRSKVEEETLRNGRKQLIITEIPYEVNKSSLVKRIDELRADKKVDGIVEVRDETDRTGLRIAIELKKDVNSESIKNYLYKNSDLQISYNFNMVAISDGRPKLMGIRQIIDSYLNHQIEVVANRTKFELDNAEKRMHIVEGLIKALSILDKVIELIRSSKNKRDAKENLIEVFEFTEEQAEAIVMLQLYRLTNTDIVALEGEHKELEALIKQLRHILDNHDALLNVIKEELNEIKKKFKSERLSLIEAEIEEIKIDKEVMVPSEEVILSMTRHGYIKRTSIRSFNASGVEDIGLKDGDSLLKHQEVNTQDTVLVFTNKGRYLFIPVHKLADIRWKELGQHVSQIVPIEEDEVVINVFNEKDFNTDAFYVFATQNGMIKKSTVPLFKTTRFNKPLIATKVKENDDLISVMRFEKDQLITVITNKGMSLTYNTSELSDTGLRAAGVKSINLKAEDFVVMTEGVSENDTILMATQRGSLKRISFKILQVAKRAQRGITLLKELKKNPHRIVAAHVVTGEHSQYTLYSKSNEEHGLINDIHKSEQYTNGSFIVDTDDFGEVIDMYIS
# T4 sequence (P0C1S7 whole entry): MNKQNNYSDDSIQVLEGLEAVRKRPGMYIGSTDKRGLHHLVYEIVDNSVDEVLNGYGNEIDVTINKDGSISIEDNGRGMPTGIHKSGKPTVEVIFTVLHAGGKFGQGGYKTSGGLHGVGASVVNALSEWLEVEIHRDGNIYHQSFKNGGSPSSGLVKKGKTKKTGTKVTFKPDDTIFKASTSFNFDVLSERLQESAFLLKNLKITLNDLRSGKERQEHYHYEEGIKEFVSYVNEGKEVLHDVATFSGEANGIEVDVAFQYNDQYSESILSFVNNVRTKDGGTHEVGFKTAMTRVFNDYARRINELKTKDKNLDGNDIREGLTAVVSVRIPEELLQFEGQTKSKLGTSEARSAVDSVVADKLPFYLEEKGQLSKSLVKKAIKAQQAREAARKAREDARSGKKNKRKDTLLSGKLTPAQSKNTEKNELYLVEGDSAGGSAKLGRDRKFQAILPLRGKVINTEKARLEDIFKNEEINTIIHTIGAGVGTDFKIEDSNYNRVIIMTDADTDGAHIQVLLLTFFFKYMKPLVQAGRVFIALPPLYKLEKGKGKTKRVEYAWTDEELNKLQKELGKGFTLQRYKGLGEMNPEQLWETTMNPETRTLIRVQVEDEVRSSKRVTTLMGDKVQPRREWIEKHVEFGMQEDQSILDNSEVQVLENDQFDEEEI
# Procedure: Inhibitory activities for compounds of the present invention were determined on E. coli and S. aureus DNA gyrase and topoisomerase IV in an assay from Inspiralis on streptavidin-coated 96-well microtiter plates from Thermo scientific Pierce. […] After washing off the unbound oligonucleotide, the enzyme test was performed. […] Reaction solutions were incubated at 37° C. for 30 min. After that, the TF buffer (50 mM NaOAc with pH 5.0, 50 mM NaCl and 50 mM MgCl2) was added to terminate the enzymatic reaction. After additional incubation for 30 min at rt, during which biotin-oligonucleotide-plasmid triplex was formed, the unbound plasmid was washed off using TF buffer and SybrGOLD in T10 buffer (10 mM Tris HCl with pH 8.0 and 1 mM EDTA) was added. […] Initial screening was done at 100 or 10 nM concentration of inhibitors against E. coli DNA gyrase or 1 μM or 100 nM concentration against S. aureus DNA gyrase and E. coli and S. aureus topo IV. […] GraphPad Prism 6.0 software was used to calculate the IC50 values. The result is given as the average value of three independent measurements. […] Chemoth.
# A. baumannii ATCC 17978 = assay: Microbroth dilution MIC (CLSI); type: cell-based; settings: Acinetobacter baumannii, ATCC17978; A. baumannii ATCC 17978; read-out: MIC
# How it was run: as §2
# [5] = system: S. aureus ATCC 43300 (MRSA); assay: Microbroth dilution MIC (CLSI); type: cell-based; settings: Staphylococcus aureus; S. aureus ATCC 43300 (MRSA); read-out: MIC
# How it was run: as §2
# [6] = system: E. spp. cloacae ATCC 13047; assay: Microbroth dilution MIC (CLSI); type: cell-based; settings: Enterobacter cloacae, ATCC13047; E. spp. cloacae ATCC 13047; read-out: MIC
# How it was run: as §2
# E. faecium ATCC 700221 = assay: Microbroth dilution MIC (CLSI); type: cell-based; settings: Enterococcus faecium, ATCC700221; E. faecium ATCC 700221; read-out: MIC
# How it was run: as §2
# K. pneumoniae ATCC 10031 = assay: Microbroth dilution MIC (CLSI); type: cell-based; settings: Klebsiella pneumoniae, ATCC10031; K. pneumoniae ATCC 10031; read-out: MIC
# How it was run: as §2
# [7] = E. aerogenes (ATCC 13408), read-out: MIC
# [8] = K. pneumoniae (ATCC 700603), read-out: MIC
# [9] = E. coli ATCC 25922, read-out: MIC
# [10] = E. faecium (ATCC 35667), read-out: MIC
# [11] = P. aeruginosa ATCC 27853, read-out: MIC
# [12] = S. aureus ATCC 29213, read-out: MIC
# [13] = A. baumannii (ATCC 19606), read-out: MIC
# [14] = read-out: RA (residual activity of the enzyme)
smiles,measurement,setting,value
"Cc1[nH]c(C(=O)Nc2ccc(C(=O)NCC(=O)O)cc2N2CC[C@@H](N)C2)c(Cl)c1Cl [Example 34, (R)-1-(5-((Carboxymethyl)carbamoyl)-2-(3,4-dichloro-5-methyl-1H-pyrrole-2-carboxamido)phenyl)pyrrolidin-3-aminium chloride]",MIC,[1],≥ 64 µg/mL
same,IC50,E. coli topoisomerase IV,2370 nM
same,IC50,E. coli DNA gyrase,21.3 nM
same,IC50,S. aureus DNA gyrase,1240 nM
same,MIC,[2],≥ 64 µg/mL
same,MIC,E. coli ATCC 25922,≥ 64 µg/mL
same,MIC,E. faecium (ATCC 35667),≥ 64 µg/mL
same,MIC,P. aeruginosa ATCC 27853,≥ 64 µg/mL
same,MIC,S. aureus ATCC 29213,≥ 64 µg/mL
same,MIC,[3],≥ 64 µg/mL
same,IC50,[4],2030 nM
"Cc1[nH]c(C(=O)Nc2ccc(C(=O)NCc3n[nH]c(=O)o3)cc2N2CCNCC2)c(Cl)c1Cl.Cl [Example 40, 4-(2-(3,4-Dichloro-5-methyl-1H-pyrrole-2-carboxamido)-5-(((5-oxo-4,5-dihydro-1,3,4-oxadiazol-2-yl)methyl)carbamoyl)phenyl)piperazin-1-ium chloride]",MIC,[1]; [7],≥ 64 µg/mL
same,IC50,E. coli topoisomerase IV; E. coli topo IV,2970 nM
same,IC50,E. coli DNA gyrase; E. coli DNA gyrase,22.4 nM
same,remaining activity at 1 µM,"S. aureus DNA gyrase; S. aureus DNA gyrase, 1 μM compound, read-out: RA (residual activity of the enzyme)",37%
same,MIC,[2]; [8],≥ 64 µg/mL
same,MIC,E. coli ATCC 25922; [9],≥ 64 µg/mL
same,MIC,E. faecium (ATCC 35667); [10],≥ 64 µg/mL
same,MIC,P. aeruginosa ATCC 27853; [11],≥ 64 µg/mL
same,MIC,S. aureus ATCC 29213; [12],≥ 64 µg/mL
same,MIC,[3]; [13],≥ 64 µg/mL
same,IC50,[4],2700 nM
"Cl.O=C(O)CNC(=O)c1ccc(NC(=O)c2cc(Br)c(Br)[nH]2)c(N2CCNCC2)c1 [Example 39, 4-(5-((Carboxymethyl)carbamoyl)-2-(4,5-dibromo-1H-pyrrole-2-carboxamido)phenyl)piperazin-1-ium chloride]",MIC,[1]; [7],≥ 64 µg/mL
same,remaining activity at 10 µM,E. coli topoisomerase IV; E. coli topo IV,97%
same,IC50,E. coli DNA gyrase; E. coli DNA gyrase,841 nM
same,MIC,[2]; [8],≥ 64 µg/mL
same,MIC,E. coli ATCC 25922; [9],≥ 64 µg/mL
same,MIC,E. faecium (ATCC 35667); [10],≥ 64 µg/mL
same,MIC,P. aeruginosa ATCC 27853; [11],≥ 64 µg/mL
same,MIC,S. aureus ATCC 29213; [12],≥ 64 µg/mL
same,MIC,[3]; [13],≥ 64 µg/mL
same,remaining activity at 10 µM,[4]; [14],73%
"Cc1[nH]c(C(=O)Nc2ccc(-c3nnn[nH]3)cc2N2CCOCC2)c(Cl)c1Cl [Example 10, 3,4-Dichloro-5-methyl-N-(2-morpholino-4-(2H-tetrazol-5-yl)phenyl)-1H-pyrrole-2-carboxamide]",MIC,[1]; [7],≥ 64 µg/mL
same,IC50,E. coli DNA gyrase; E. coli DNA gyrase,44.5 nM
same,MIC,[2]; [8],≥ 64 µg/mL
same,MIC,A. baumannii ATCC 17978,≥ 64 µg/mL
same,MIC,E. coli ATCC 25922; [9],≥ 64 µg/mL
same,MIC,E. faecium (ATCC 35667); [10],10 µg/mL
same,MIC,P. aeruginosa ATCC 27853; [11],≥ 64 µg/mL
same,MIC,S. aureus ATCC 29213; [12],≥ 64 µg/mL
same,MIC,[3]; [13],≥ 64 µg/mL
same,MIC,[5],≥ 64 µg/mL
same,MIC,[6],≥ 64 µg/mL
same,MIC,E. faecium ATCC 700221,≥ 64 µg/mL
same,MIC,K. pneumoniae ATCC 10031,≥ 64 µg/mL
same,remaining activity at 0.1 µM,"[4]; 0.1 μM compound, read-out: RA (residual activity of the enzyme)",101%
same,remaining activity at 1 µM,"[4]; 1 μM compound, read-out: RA (residual activity of the enzyme)",7%
"Cl.N[C@H]1CCN(c2cc(C(=O)NCC(=O)O)ccc2NC(=O)c2cc(Br)c(Br)[nH]2)C1 [Example 38, (S)-1-(5-((Carboxymethyl)carbamoyl)-2-(4,5-dibromo-1H-pyrrole-2-carboxamido)phenyl)pyrrolidin-3-aminium chloride]",MIC,[1]; [7],≥ 64 µg/mL
same,remaining activity at 10 µM,E. coli topoisomerase IV; E. coli topo IV,84%
same,IC50,E. coli DNA gyrase; E. coli DNA gyrase,35.7 nM
same,remaining activity at 10 µM,"S. aureus DNA gyrase; S. aureus DNA gyrase, 10 μM compound, read-out: RA (residual activity of the enzyme)",46%
same,MIC,[2]; [8],≥ 64 µg/mL
same,MIC,E. coli ATCC 25922; [9],≥ 64 µg/mL
same,MIC,E. faecium (ATCC 35667); [10],≥ 64 µg/mL
same,MIC,P. aeruginosa ATCC 27853; [11],≥ 64 µg/mL
same,MIC,S. aureus ATCC 29213; [12],≥ 64 µg/mL
same,MIC,[3]; [13],≥ 64 µg/mL
same,remaining activity at 10 µM,[4]; [14],91%
"Cc1[nH]c(C(=O)Nc2ccc(C(=O)NCC(=O)O)cc2N2CCNCC2)c(Cl)c1Cl.Cl [Example 36, 4-(5-((Carboxymethyl)carbamoyl)-2-(3,4-dichloro-5-methyl-1H-pyrrole-2-carboxamido)phenyl)piperazin-1-ium chloride]",MIC,[1]; [7],≥ 64 µg/mL
same,remaining activity at 10 µM,E. coli topoisomerase IV; E. coli topo IV,-43%
same,IC50,E. coli DNA gyrase; E. coli DNA gyrase,40.3 nM
same,IC50,S. aureus DNA gyrase; S. aureus DNA gyrase,621 nM
same,MIC,[2]; [8],≥ 64 µg/mL
same,MIC,E. coli ATCC 25922; [9],≥ 64 µg/mL
same,MIC,E. faecium (ATCC 35667); [10],≥ 64 µg/mL
same,MIC,P. aeruginosa ATCC 27853; [11],≥ 64 µg/mL
same,MIC,S. aureus ATCC 29213; [12],≥ 64 µg/mL
same,MIC,[3]; [13],≥ 64 µg/mL
same,IC50,[4],4190 nM
"Cc1[nH]c(C(=O)Nc2ccc(C(=O)O)cc2N2CCNCC2)c(Cl)c1Cl [Example 12, 4-(5-Carboxy-2-(3,4-dichloro-5-methyl-1H-pyrrole-2-carboxamido)phenyl)piperazin-1-ium chloride]",MIC,[1],≥ 64 µg/mL
same,remaining activity at 10 µM,E. coli topoisomerase IV; E. coli topo IV,-18%
same,remaining activity at 1 µM,"E. coli DNA gyrase; E. coli DNA gyrase, 1 μM compound, read-out: RA (residual activity of the enzyme)",67%
same,MIC,[2],≥ 64 µg/mL
same,MIC,E. coli ATCC 25922; [9],≥ 64 µg/mL
same,MIC,E. faecium (ATCC 35667),≥ 64 µg/mL
same,MIC,P. aeruginosa ATCC 27853; [11],≥ 64 µg/mL
same,MIC,S. aureus ATCC 29213; [12],≥ 64 µg/mL
same,MIC,[3],≥ 64 µg/mL
same,remaining activity at 10 µM,[4]; [14],-17%
